Data from PubChem BioAssay (NCI).
Where “and” joins values, the source holds several entries; their conditions need not be identical. Equal entries are not always repeated.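 Where inhibition never reached the appropriate level, the endpoint shown equals the highest concentration tested. Otherwise, values were interpolated linearly from a five-concentration, 48-hour dose response in 96-well plates. GI50 is the concentration that inhibits growth by half. Definition used: TGI = concentration required for complete inhibition of growth.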 Where a SMILES comes first, the peptide text is derived from it. The star is where a group is joined. Fmoc = O=C(OCC1c2ccccc2-c2ccccc21)*; OtBu = CC(C)(C)O*

Experiments:
Assay in all cases: NCI tumour cell line growth inhibition, 48 h
SF-268 CNS = tested on: SF-268 CNS
BT-549 breast = tested on: BT-549 breast
RXF 393 renal = tested on: RXF 393 renal
A498 renal = tested on: A498 renal
DU-145 prostate = tested on: DU-145 prostate
PC-3 prostate = tested on: PC-3 prostate
SN12C renal = tested on: SN12C renal
SW-620 colon = tested on: SW-620 colon
SK-OV-3 ovarian = tested on: SK-OV-3 ovarian
MOLT-4 leukemia = tested on: MOLT-4 leukemia
OVCAR-4 ovarian = tested on: OVCAR-4 ovarian
HCT-15 colon = tested on: HCT-15 colon
UACC-257 melanoma = tested on: UACC-257 melanoma
OVCAR-8 ovarian = tested on: OVCAR-8 ovarian
RPMI-8226 leukemia = tested on: RPMI-8226 leukemia
LOX IMVI melanoma = tested on: LOX IMVI melanoma
MDA-N = tested on: MDA-N
OVCAR-5 ovarian = tested on: OVCAR-5 ovarian

SMILES	TGI (SF-268 CNS)	TGI (BT-549 breast)	TGI (RXF 393 renal)	TGI (A498 renal)	TGI (DU-145 prostate)	TGI (PC-3 prostate)	TGI (SN12C renal)	TGI (SW-620 colon)	TGI (SK-OV-3 ovarian)	TGI (MOLT-4 leukemia)	TGI (OVCAR-4 ovarian)	TGI (HCT-15 colon)	TGI (UACC-257 melanoma)	TGI (OVCAR-8 ovarian)	TGI (RPMI-8226 leukemia)	TGI (LOX IMVI melanoma)	TGI (MDA-N)	TGI (OVCAR-5 ovarian)	GI50 (PC-3 prostate)	GI50 (OVCAR-8 ovarian)
CCN1CCC(O)(c2ccc(Oc3ccc(Cl)cc3)cc2)C(C(=O)c2ccc(Oc3ccc(Cl)cc3)cc2)C1 (stereo unspecified)	44.3 µM	29.7 µM	46.8 µM	23.4 µM	34.3 µM	21.3 µM	26.9 µM	50.9 µM	38.9 µM	43.9 µM	32.7 µM	19.9 µM	27.1 µM	38.6 µM	10.9 µM	16.5 µM	27 µM	26.4 µM		
COc1cccc(/C=N/n2c(Cc3ccccc3)n[nH]c2=O)c1	> 100 µM	> 100 µM	> 100 µM	> 100 µM	> 100 µM	> 100 µM	> 60.3 µM	> 100 µM	> 100 µM	> 100 µM	> 100 µM	> 100 µM	> 100 µM	> 100 µM	> 100 µM	> 100 µM	> 100 µM	> 100 µM		
CC1OC(OC2C(OC(=O)[C@]34CCC(C)(C)C[C@H]3C3=CC[C@@H]5[C@@]6(C)CC[C@H](OC7OC(C(=O)O)C(O)C(O)C7O)C(C)(C)[C@@H]6CC[C@@]5(C)[C@]3(C)C[C@H]4O)OCC(O)C2O)C(O)C(O)C1OC1OCC(O)C(O)C1O (stereo partly specified)	34.6 µM and 25.4 µM	26.9 µM and 29.8 µM	35.4 µM and 31.6 µM	6.22 µM and 3.63 µM	28.9 µM and 27.4 µM	23.7 µM and 18.6 µM	16 µM and 6.05 µM	32.8 µM and 27.7 µM	33.1 µM and 32 µM	34.6 µM and 74.8 µM	31.7 µM	31.6 µM and 33.7 µM	32.6 µM and 34.1 µM	26.5 µM and 5.19 µM	30.4 µM and 94 µM	30.9 µM and 29.5 µM	27.3 µM and 23.5 µM	28.5 µM and 23 µM	11.3 µM and 5.07 µM	13.2 µM and 2.33 µM
N#CC12C(=O)N3C(=NC(c4ccco4)NC3c3ccco3)C1(C#N)C(c1ccco1)NC1=C2CCCC1 (stereo unspecified)	> 100 µM	> 100 µM	> 100 µM	> 100 µM	> 100 µM	> 100 µM	> 100 µM	> 100 µM	> 100 µM	> 100 µM	> 100 µM	> 100 µM	> 100 µM	> 100 µM	> 100 µM	> 100 µM	> 100 µM	> 100 µM		
Cc1cc(NC2=CC(=O)C(=O)c3ccccc32)no1	31.2 µM	13.4 µM	29.6 µM	33.1 µM	30.1 µM	53.9 µM	7.1 µM	14.6 µM	40.3 µM	31.7 µM	21.4 µM	19 µM	16.7 µM	29.4 µM	32.5 µM	4.06 µM	3.34 µM	18.1 µM		
CCOC1CN=C(Nc2cccc3ccccc23)S1 (stereo unspecified)	> 10 µM	> 10 µM	> 10 µM	> 10 µM	> 10 µM	> 10 µM	> 10 µM	> 10 µM	> 10 µM	> 10 µM	> 10 µM	> 10 µM	> 10 µM	> 10 µM	> 10 µM	> 10 µM	> 10 µM	> 10 µM		
CNC(=O)C(C)NC(=O)C(Cc1ccccc1)NC(=O)c1ccccc1 (stereo unspecified)	> 100 µM	> 100 µM	> 100 µM	> 100 µM	> 100 µM	> 100 µM	> 100 µM	> 100 µM	> 100 µM	> 100 µM	> 100 µM	> 100 µM	> 100 µM	> 100 µM	> 100 µM	> 100 µM	> 100 µM	> 100 µM		
CC(C)C(NC(=O)OCC1c2ccccc2-c2ccccc21)C(=O)NC(CCC(=O)OC(C)(C)C)C(=O)OC(C)(C)C (stereo unspecified) (Fmoc-Val-Glu(OtBu)-OtBu; configuration not given here)	> 100 µM	> 100 µM	> 100 µM	> 100 µM	> 100 µM	> 100 µM	> 31.6 µM	> 100 µM	> 100 µM	> 100 µM	> 100 µM	> 100 µM	> 100 µM	> 100 µM	> 100 µM	> 100 µM	> 100 µM	> 100 µM		
